# Measurements reported in EP4610269A1, “UROKINASE PLASMINOGEN ACTIVATOR SURFACE RECEPTOR (UPAR) LIGANDS FOR DIAGNOSTIC OR THERAPEUTIC USE” (3B Pharmaceuticals GmbH, priority 2024, dated 2025).
# Where a SMILES comes first, the peptide text is derived from it. Bridges are numbered along the chain shown (N, C = ends). [ ]: non-standard residue; d: D form. The star is where a group is joined. DOTA = O=C(O)CN1CCN(CC(=O)O)CCN(CC(=O)*)CCN(CC(=O)O)CC1; Pro(trans-4-F) = O=C(O)[C@@H]1C[C@@H](F)CN1; Phe(4-Cl) = N[C@@H](Cc1ccc(Cl)cc1)C(=O)O; Pro(cis-4-F) = O=C(O)[C@@H]1C[C@H](F)CN1; Dopa = N[C@@H](Cc1ccc(O)c(O)c1)C(=O)O; Hyp = O=C(O)[C@@H]1C[C@@H](O)CN1; Cit = NC(=O)NCCC[C@H](N)C(=O)O; Butoxycarbonyl = CCCCOC(=O)*; Nva = CCC[C@H](N)C(=O)O; Pentanoyl = CCCCC(=O)*
# Legend:
# [1] = target: T1, Recombinant soluble human NEP (Homo sapiens, UniProt P08473); test: Proteolytic stability assay against NEP; format: in vitro ADME; details: recombinant soluble human NEP, human NEP 100 ng/mL, compound 10 µM, 37°C, LC-MS quantification, read-out: % intact compound remaining after 24h incubation
# T1 construct: Recombinant soluble human NEP; purchased BioTechne, Wiesbaden, Germany
# Experimental: To assess the stability of compounds against NEP, the compounds were subjected to an in vitro assay based on the protocol described by Edelson et al. (Edelson, Makhlina et al. 2013).
# Recombinant soluble human NEP (BioTechne, Wiesbaden, Germany) at a concentration of 100 ng/mL was mixed with the compound (10 µM) and a stable internal standard (10 µM) and incubated at 37°C. After several time points, samples were taken and analyzed with LC-MS.
# The determination of the analyte in the clean sample solutions was performed on an Agilent 1290 UHPLC system coupled to an Agilent 6530 Q-TOF mass spectrometer. The chromatographic separation was carried out on a Phenomenex BioZen XB-C18 HPLC column (50 × 2 mm, 1.7 µm particle size) with gradient elution using a mixture of 0.1% formic acid in water as eluent A and acetonitrile as eluent B (2% B to 41% in 7 min, 800 µl/min, 40°C). Mass spectrometric detection was performed in positive ion ESI mode by scanning the mass range from m/z 50 to 3000 with a sampling rate of 2 / sec.
# (§1) From the mass spectrometric raw data the ion currents for the double or triple charged monoisotopic signal was extracted for both, the compound and the internal standard.
# (§2) Quantitation was performed by external matrix calibration with internal standard using the integrated analyte signals.
# The activity of NEP was examined using a commercially available chromogenic substrate of NEP.
# (§3) The result is stated as "% intact compound remaining after 24 h incubation" and means that from the amount of material at the start of the experiment the stated percentage is detected as unchanged material at the end of the experiment by LC-MS quantification. Since all compounds are more than 50% intact after 24 h they are considered as stable enough for diagnostic and therapeutic applications. Table 14: Results of the NEP stability assay
# [2] = target: T2, uPAR-expressing HEC-265 human endometrial adenocarcinoma cells (Homo sapiens, UniProt Q03405); test: Competitive FACS binding assay; details: pIC50 category of FACS binding
# T2 construct: Cell surface uPAR-expressing HEC-265 human endometrial adenocarcinoma cells; host or cells: HEC-265
# Procedure, shortened: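 Competitive displacement of a 10 nM biotinylated peptide from HEC-265 cells (1 h, 4 °C, PBS/1% BSA), detected via APC-streptavidin by flow cytometry. pIC50 from four-parameter logistic fit of median fluorescence versus concentration.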
# human uPAR (uPAR-Fc) = target: T3, human uPAR (uPAR-Fc) (Homo sapiens, UniProt Q03405); test: Surface plasmon resonance (SPR) assay, single cycle kinetics; format: binding; details: pKD category for uPAR SPR activity assay; uPAR-Fc on Protein A-Chip, 25°C; read-out: pKD CAT (converted)
# T3 construct: comprising amino acids Leu23-Arg303 according to UniProt entry Q03405.1; purchased R&D Systems 10378-UK-100
# Procedure, shortened: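 uPAR-Fc (Leu23-Arg303 extracellular domains, human IgG1 Fc) captured on Protein A chip to ~2000 RU; single-cycle kinetics at 25°C in HEPES running buffer pH 7.4 with 0.1% DMSO. KD from double-referenced sensorgrams fitted to 1:1 Langmuir model, reported as pKD.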
# [3] = Plasma stability assay (human plasma); format: in vitro ADME; details: human plasma (sodium citrate 3.7%), 37°C, LC-MS quantification, read-out: % intact compound remaining after 6h incubation Human plasma
# Experimental: (§4) In order to determine the stability of selected compounds of the invention in human and mouse plasma, a plasma stability assay was carried out. Such plasma stability assay measures degradation of compounds of the present invention in blood plasma. This is an important characteristic of a compound as compounds, with the exception of pro-drugs, which rapidly degrade in plasma, generally show poor in vivo efficacy. […] The stability is sufficient for the diagnostic, therapeutic and theragnostic use of these compounds according to the present invention.
# (§5) The plasma stability samples were prepared by spiking 50 µl plasma aliquots (all sodium citrate 3.7%) with 1 µl of a 0.5 mM compound stock solution in DMSO. After vortexing the samples were incubated in a Thermomixer at 37°C for 0 and 6 hours. After incubation the samples were stored on ice until further treatment. All samples were prepared in duplicates.
# A suitable internal standard was added to each sample (1 µl of a 0.5 mM stock solution in DMSO). Protein precipitation was performed using two different methods depending on the compound conditions as indicated in Table 13. • A) 250 µl of acetonitrile containing 1% trifluoroacetic acid was added. […]
# as §2
# (§6) Additionally, recovery was determined by spiking a pure plasma sample that only contained the internal standard after treatment with a certain amount of the compound.
# (§7) Carry-over was evaluated by analysis of a blank sample (20% acetonitrile) after the highest calibration sample.
# The result is stated as "% intact compound remaining after 6 h incubation" and means that from the amount of material at the start of the experiment the stated percentage is detected as unchanged material at the end of the experiment by LC-MS quantification. […]
# [4] = Plasma stability assay (mouse plasma); format: in vitro ADME; details: mouse plasma (sodium citrate 3.7%), 37°C, LC-MS quantification, read-out: % intact compound remaining after 6h incubation Mouse plasma
# Experimental: as §4, §5
# A suitable internal standard was added to each sample (1 µl of a 0.5 mM stock solution in DMSO). Protein precipitation was performed using two different methods depending on the compound conditions as indicated in Table 13. • A) 250 µl of acetonitrile containing 1% trifluoroacetic acid was added. After incubation at room temperature for 30 min the precipitate was separated by centrifugation and 150 µl of the supernatant was diluted with 150 µl of 1% aqueous formic acid. • B) 150 µl of a zinc sulphate precipitation agent containing 78% 0.1 M zinc sulphate and 22% acetonitrile was added. After incubation at room temperature for 30 min the precipitate was separated by centrifugation. To 100 µl of the supernatant 10 µl of 1% formic acid was added followed by further incubation at 60°C for 10 min to complete the formation of the zinc chelate, if the compound contains a free DOTA moiety.
# The determination of the analyte in the clean sample solutions was performed on an Agilent 1290 UHPLC system coupled to an Agilent 6530 Q-TOF mass spectrometer. The chromatographic separation was carried out on a Phenomenex BioZen XB-C18 HPLC column (50 x 2 mm, 1.7 µm particle size).
# Two different elution gradients were applied using a mixture of 0.1% formic acid in water as eluent A and acetonitrile as eluent B: • A) 2% B to 41% in 7 min, 800 µl/min, 40°C. • B) 5% B to 50% B in 6 min, 800 µL/min, 40°C.
# Mass spectrometric detection was performed in positive ion ESI mode by scanning the mass range from m/z 50 to 3000 with a sampling rate of 2 / sec.
# as §1, §2, §6, §7
# as §3, with “6” for “24”, “13:” for “14:”, “plasma” for “NEP”
# T2 sequence (Q03405 23-335): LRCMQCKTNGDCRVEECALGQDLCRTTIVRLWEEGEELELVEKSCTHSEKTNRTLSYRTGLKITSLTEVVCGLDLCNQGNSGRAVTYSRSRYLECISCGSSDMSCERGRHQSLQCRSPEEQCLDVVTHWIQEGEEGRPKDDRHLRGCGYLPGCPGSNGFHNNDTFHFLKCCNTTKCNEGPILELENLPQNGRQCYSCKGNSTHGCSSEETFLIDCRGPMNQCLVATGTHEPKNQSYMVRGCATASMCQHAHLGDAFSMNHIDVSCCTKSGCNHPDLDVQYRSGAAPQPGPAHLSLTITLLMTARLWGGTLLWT
# T3 sequence (Q03405 23-303): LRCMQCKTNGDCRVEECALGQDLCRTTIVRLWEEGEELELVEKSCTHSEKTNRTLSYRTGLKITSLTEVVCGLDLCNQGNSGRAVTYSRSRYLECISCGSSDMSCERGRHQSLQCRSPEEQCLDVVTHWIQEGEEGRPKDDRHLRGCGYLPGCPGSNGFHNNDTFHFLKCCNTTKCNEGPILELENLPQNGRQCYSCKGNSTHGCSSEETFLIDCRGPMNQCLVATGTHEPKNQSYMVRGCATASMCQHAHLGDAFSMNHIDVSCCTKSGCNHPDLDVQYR
# T1 sequence (P08473 52-750 limits assumed): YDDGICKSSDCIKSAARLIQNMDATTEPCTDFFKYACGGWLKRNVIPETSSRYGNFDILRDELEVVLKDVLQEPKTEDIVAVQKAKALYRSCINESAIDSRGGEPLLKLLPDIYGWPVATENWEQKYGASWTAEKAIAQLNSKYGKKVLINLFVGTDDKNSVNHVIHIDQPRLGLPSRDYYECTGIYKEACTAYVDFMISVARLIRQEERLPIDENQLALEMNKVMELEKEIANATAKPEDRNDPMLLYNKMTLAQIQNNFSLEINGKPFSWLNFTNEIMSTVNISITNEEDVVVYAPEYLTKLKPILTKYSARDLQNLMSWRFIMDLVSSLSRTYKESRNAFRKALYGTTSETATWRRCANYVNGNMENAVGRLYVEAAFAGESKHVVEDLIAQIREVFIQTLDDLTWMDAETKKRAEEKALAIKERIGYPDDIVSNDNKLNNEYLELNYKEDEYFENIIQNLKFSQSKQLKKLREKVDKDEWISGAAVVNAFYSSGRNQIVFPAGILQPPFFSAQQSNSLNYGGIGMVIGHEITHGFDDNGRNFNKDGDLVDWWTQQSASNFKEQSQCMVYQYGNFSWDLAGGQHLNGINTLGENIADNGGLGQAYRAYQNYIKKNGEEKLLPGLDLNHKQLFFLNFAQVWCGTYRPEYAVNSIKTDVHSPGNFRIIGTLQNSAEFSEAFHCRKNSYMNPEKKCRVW
"remaining at 24 h, 10 µM [1]",IC50 [2],Kd (human uPAR (uPAR-Fc)),Structure (SMILES),"remaining at 6 h, 9.8 µM [3]","remaining at 6 h, 9.8 µM [4]"
> 95%,≤ 10 nM,< 1.58 nM,"CCCCC(=O)N[C@H]1CSSC[C@@H](C(N)=O)NC(=O)[C@H](CCC)NC(=O)[C@H]([C@@H](C)CC)NC(=O)[C@@H]2C[C@@H](O)CN2C(=O)[C@@H]2CCCN2C(=O)[C@H](Cc2ccc(Cl)cc2)NC(=O)[C@H](Cc2ccc(O)cc2)NC(=O)[C@H](CCCCNC(=O)CN2CCN(CC(=O)O)CCN(CC(=O)O)CCN(CC(=O)O)CC2)NC(=O)[C@H](CCCNC(N)=O)NC1=O [UPAR-233, Pent-[Cys-Cit-Lys(DOTA)-Tyr-Pcf-Pro-Hyp-Ile-Nva-Cys]-NH2] (Pentanoyl-C[Cit]K(DOTA)Y[Phe(4-Cl)]P[Hyp]I[Nva]C-NH2; disulfide 1-10)",–,–
89%,≤ 10 nM,< 1.58 nM,"CCCCC(=O)N[C@H]1CSSC[C@@H](C(N)=O)NC(=O)[C@H](CCC)NC(=O)[C@H]([C@@H](C)CC)NC(=O)[C@@H]2C[C@@H](F)CN2C(=O)[C@@H]2CCCN2C(=O)[C@H](Cc2ccccc2)NC(=O)[C@H](Cc2ccc(O)cc2)NC(=O)[C@H](CCCCNC(=O)CN2CCN(CC(=O)O)CCN(CC(=O)O)CCN(CC(=O)O)CC2)NC(=O)[C@H](CCCNC(N)=O)NC1=O [UPAR-246, Pent-[Cys-Cit-Lys(DOTA)-Tyr-Phe-Pro-4Tfp-Ile-Nva-Cys]-NH2] (Pentanoyl-C[Cit]K(DOTA)YFP[Pro(trans-4-F)]I[Nva]C-NH2; disulfide 1-10)",–,–
–,≤ 10 nM,< 1.58 nM,"CCCCC(=O)N[C@H]1CSSC[C@@H](C(N)=O)NC(=O)[C@H](CCC)NC(=O)[C@H]([C@@H](C)CC)NC(=O)[C@@H]2C[C@@H](O)CN2C(=O)[C@@H]2CCCN2C(=O)[C@H](Cc2ccccc2)NC(=O)[C@H](Cc2ccc(O)cc2)NC(=O)[C@H](CCCCNC(=O)CN2CCN(CC(=O)O)CCN(CC(=O)O)CCN(CC(=O)O)CC2)NC(=O)[C@H]([C@@H](C)O)NC1=O [UPAR-301, Pent-[Cys-Thr-Lys(DOTA)-Tyr-Phe-Pro-Hyp-Ile-Nva-Cys]-NH2] (Pentanoyl-CTK(DOTA)YFP[Hyp]I[Nva]C-NH2; disulfide 1-10)",> 95%,91%

Structure (SMILES),"remaining at 24 h, 10 µM [1]",IC50 [2],Kd (human uPAR (uPAR-Fc)),"remaining at 6 h, 9.8 µM [3]","remaining at 6 h, 9.8 µM [4]"
"CCCCOC(=O)N[C@H]1CSSC[C@@H](C(N)=O)NC(=O)[C@H](CCC)NC(=O)[C@H]([C@@H](C)CC)NC(=O)[C@@H]2C[C@@H](O)CN2C(=O)[C@@H]2C[C@H](F)CN2C(=O)[C@H](Cc2ccccc2)NC(=O)[C@H](Cc2ccc(O)c(O)c2)NC(=O)[C@H](CCCCNC(=O)CN2CCN(CC(=O)O)CCN(CC(=O)O)CCN(CC(=O)O)CC2)NC(=O)[C@H]([C@@H](C)O)NC1=O [UPAR-249, Butoc-[Cys-Thr-Lys(DOTA)-Dopa-Phe-4Cfp-Hyp-Ile-Nva-Cys]-NH2] (Butoxycarbonyl-CTK(DOTA)[Dopa]F[Pro(cis-4-F)][Hyp]I[Nva]C-NH2; disulfide 1-10)",–,≤ 10 nM,< 1.58 nM,64%,22%
